In patent US20260191968A1, “PROTAC DEGRADERS OF MLLT1 AND/OR MLLT3” (DARK BLUE THERAPEUTICS LTD, priority 2024, published 2026):

Experiments:
[1] = biological target: T1, MLLT1 (Homo sapiens, UniProt Q03111); experiment: MLLT1 degradation assay in MV4-11 cells (JESS chemiluminescent detection), three concentrations, 24 h; type: cell-based; conditions: with respect to DMSO control
T1 construct: host or cells: MV4-11
T1 sequence (Q03111 1-559): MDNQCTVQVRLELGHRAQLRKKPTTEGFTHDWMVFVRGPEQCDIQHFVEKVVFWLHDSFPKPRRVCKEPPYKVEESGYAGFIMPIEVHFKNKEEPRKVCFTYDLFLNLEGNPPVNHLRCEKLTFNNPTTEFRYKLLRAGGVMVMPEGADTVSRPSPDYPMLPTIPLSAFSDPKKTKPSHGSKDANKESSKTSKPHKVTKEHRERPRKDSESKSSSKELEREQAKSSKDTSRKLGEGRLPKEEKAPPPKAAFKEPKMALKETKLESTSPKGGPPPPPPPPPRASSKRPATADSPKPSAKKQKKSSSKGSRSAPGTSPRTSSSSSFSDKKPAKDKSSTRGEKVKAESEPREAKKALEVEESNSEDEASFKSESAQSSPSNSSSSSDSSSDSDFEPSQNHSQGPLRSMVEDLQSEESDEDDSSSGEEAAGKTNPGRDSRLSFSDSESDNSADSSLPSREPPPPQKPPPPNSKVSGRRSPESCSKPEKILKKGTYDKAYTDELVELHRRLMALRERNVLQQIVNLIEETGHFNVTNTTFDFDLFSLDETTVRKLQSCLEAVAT
Outline: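 Read-out is % MLLT1 degradation versus DMSO, from band peak areas on a JESS chemiluminescent system. Cells (MV4-11) were exposed for 24 h at 37° C to three compound levels, 10, 100 and 1000 nM, in 0.1% DMSO.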

[2] = tested on: MV4-11 cells; experiment: MV4-11 cellular proliferative assay, Assay Format B (CTG 2.0, 168 h); type: cell-based; conditions: Homo sapiens, 168 h (7 days), CTG 2.0, read-out: IC50 (MV4-11 cellular proliferative assay, Assay format B)
Outline: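 Viability read by CellTiter-Glo 2.0 luminescence after 7-day (168 h) compound exposure of MV4-11 cells in IMDM/10% FBS. Ten 3-fold concentrations starting at 1 uM or 100 nM, 0.3% final DMSO; curves normalised to DMSO control, four-parameter fit.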

SMILES | MLLT1% Degradation @ 0.01 μM [1] | MLLT1% Degradation @ 0.1 μM [1] | IC50 [2] [nM] | MLLT1% Degradation @ 1 μM [1]
CN1CCC[C@@H]1c1cc2cnc(NC(=O)c3ccc(-c4cnn(CCCCC#Cc5cccc6c5CN(C5CCC(=O)NC5=O)C6=O)c4)cc3)cc2[nH]1 (stereo partly drawn) [Example 59, 4-(1-(6-(2-(2,6-dioxopiperidin-3-yl)-1-oxoisoindolin-4-yl)hex-5-yn-1-yl)-1H-pyrazol-4-yl)-N-(2-((R)-1-methylpyrrolidin-2-yl)-1H-pyrrolo[3,2-c]pyridin-6-yl)benzamide] | A (Category A: A ≥ 75% degradation) | A (Category A: A ≥ 75% degradation) | ≤ 100 | B (Category B: 50% ≤ B < 75% degradation)
CN1CCC[C@@H]1c1cc2cnc(NC(=O)c3ccc(-c4cnn(CCCC5CCN(c6cccc(C(=O)N[C@H]7CCC(=O)NC7=O)n6)CC5)c4)cc3)cc2[nH]1 [Example 60, N—((S)-2,6-dioxopiperidin-3-yl)-6-(4-(3-(4-(4-((2-((R)-1-methylpyrrolidin-2-yl)-1H-pyrrolo[3,2-c]pyridin-6-yl)carbamoyl)phenyl)-1H-pyrazol-1-yl)propyl)piperidin-1-yl)picolinamide] | A (Category A: A ≥ 75% degradation) | A (Category A: A ≥ 75% degradation) | ≤ 100 | A (Category A: A ≥ 75% degradation)
CN1CCC[C@@H]1c1cc2cnc(NC(=O)c3ccc(-c4cnn(CCOC5CCN(c6cccc(C(=O)N[C@H]7CCC(=O)NC7=O)n6)CC5)c4)cc3)cc2[nH]1 [Example 61, N—((S)-2,6-dioxopiperidin-3-yl)-6-(4-(2-(4-(4-((2-((R)-1-methylpyrrolidin-2-yl)-1H-pyrrolo[3,2-c]pyridin-6-yl)carbamoyl)phenyl)-1H-pyrazol-1-yl)ethoxy)piperidin-1-yl)picolinamide] | A (Category A: A ≥ 75% degradation) | A (Category A: A ≥ 75% degradation) | ≤ 100 | B (Category B: 50% ≤ B < 75% degradation)
CN1CCC[C@@H]1c1cc2cnc(NC(=O)c3cnc(N4CCC(C#Cc5cccc6c5CN(C5CCC(=O)NC5=O)C6=O)CC4)nc3)cc2[nH]1 (stereo partly drawn) [Example 65, 2-(4-((2-(2,6-dioxopiperidin-3-yl)-1-oxoisoindolin-4-yl)ethynyl)piperidin-1-yl)-N-(2-((R)-1-methylpyrrolidin-2-yl)-1H-pyrrolo[3,2-c]pyridin-6-yl)pyrimidine-5-carboxamide] | B (Category B: 50% ≤ B < 75% degradation) | B (Category B: 50% ≤ B < 75% degradation) | ≤ 100 | B (Category B: 50% ≤ B < 75% degradation)
CN1CCC[C@@H]1c1cc2cnc(NC(=O)c3ccc(OCC#Cc4cccc5c4n(C)c(=O)n5C4CCC(=O)NC4=O)cc3)cc2[nH]1 (stereo partly drawn) [Example 66, 4-((3-(1-(2,6-dioxopiperidin-3-yl)-3-methyl-2-oxo-2,3-dihydro-1H-benzo[d]imidazol-4-yl)prop-2-yn-1-yl)oxy)-N-(2-((R)-1-methylpyrrolidin-2-yl)-1H-pyrrolo[3,2-c]pyridin-6-yl)benzamide] | A (Category A: A ≥ 75% degradation) | A (Category A: A ≥ 75% degradation) | ≤ 100 | A (Category A: A ≥ 75% degradation)
CN1CCC[C@@H]1c1cc2cnc(NC(=O)c3ccc(OCCC4CCN(c5cccc6c5C(=O)N(C5CCC(=O)NC5=O)C6=O)CC4)cc3)cc2[nH]1 (stereo partly drawn) [Example 82, 4-(2-(1-(2-(2,6-dioxopiperidin-3-yl)-1,3-dioxoisoindolin-4-yl)piperidin-4-yl)ethoxy)-N-(2-((R)-1-methylpyrrolidin-2-yl)-1H-pyrrolo[3,2-c]pyridin-6-yl)benzamide] | B (Category B: 50% ≤ B < 75% degradation) | A (Category A: A ≥ 75% degradation) | ≤ 100 | A (Category A: A ≥ 75% degradation)
CN1CCC[C@@H]1c1cc2cnc(NC(=O)c3ccc(OCCC4CCN(c5ccc6c(c5)C(=O)N(C5CCC(=O)NC5=O)C6=O)CC4)cc3)cc2[nH]1 (stereo partly drawn) [Example 83, 4-(2-(1-(2-(2,6-dioxopiperidin-3-yl)-1,3-dioxoisoindolin-5-yl)piperidin-4-yl)ethoxy)-N-(2-((R)-1-methylpyrrolidin-2-yl)-1H-pyrrolo[3,2-c]pyridin-6-yl)benzamide] | A (Category A: A ≥ 75% degradation) | A (Category A: A ≥ 75% degradation) | ≤ 100 | B (Category B: 50% ≤ B < 75% degradation)
CN1CCC[C@@H]1c1cc2cnc(NC(=O)c3ccc(N4CCC(OCc5ccc(-c6cccc7c6CN(C6CCC(=O)NC6=O)C7=O)cc5)CC4)cc3)cc2[nH]1 (stereo partly drawn) [Example 85, 4-(4-((4-(2-(2,6-dioxopiperidin-3-yl)-1-oxoisoindolin-4-yl)benzyl)oxy)piperidin-1-yl)-N-(2-((R)-1-methylpyrrolidin-2-yl)-1H-pyrrolo[3,2-c]pyridin-6-yl)benzamide] | C (Category C: 25% ≤ C < 50% degradation) | A (Category A: A ≥ 75% degradation) | ≤ 100 | B (Category B: 50% ≤ B < 75% degradation)
CN1CC2(CC2)CC1c1cc2cnc(NC(=O)c3ccc(CCCCC#Cc4cccc5c4CN(C4CCC(=O)NC4=O)C5=O)nc3)cc2[nH]1 (stereo not drawn) [Example 86, 6-(6-(2-(2,6-dioxopiperidin-3-yl)-1-oxoisoindolin-4-yl)hex-5-yn-1-yl)-N-(2-((rel-R)-5-methyl-5-azaspiro[2.4]heptan-6-yl)-1H-pyrrolo[3,2-c]pyridin-6-yl)nicotinamide] | A (Category A: A ≥ 75% degradation) | A (Category A: A ≥ 75% degradation) | ≤ 100 | B (Category B: 50% ≤ B < 75% degradation)
CN(CCC#Cc1cccc2c1CN(C1CCC(=O)NC1=O)C2=O)c1ccc(C(=O)Nc2cc3[nH]c([C@H]4CCCN4C)cc3cn2)cc1 (stereo partly drawn) [Example 87, 4-((4-(2-(2,6-dioxopiperidin-3-yl)-1-oxoisoindolin-4-yl)but-3-yn-1-yl)(methyl)amino)-N-(2-((R)-1-methylpyrrolidin-2-yl)-1H-pyrrolo[3,2-c]pyridin-6-yl)benzamide] | A (Category A: A ≥ 75% degradation) | A (Category A: A ≥ 75% degradation) | ≤ 100 | B (Category B: 50% ≤ B < 75% degradation)
CN1CCC[C@@H]1c1cc2cnc(NC(=O)c3ccc(N4CCN(C(=O)CC5CCN(c6cccc7c6CN(C6CCC(=O)NC6=O)C7=O)CC5)CC4)cc3)cc2[nH]1 (stereo partly drawn) [Example 88, 4-(4-(2-(1-(2-(2,6-dioxopiperidin-3-yl)-1-oxoisoindolin-4-yl)piperidin-4-yl)acetyl)piperazin-1-yl)-N-(2-((R)-1-methylpyrrolidin-2-yl)-1H-pyrrolo[3,2-c]pyridin-6-yl)benzamide] | B (Category B: 50% ≤ B < 75% degradation) | A (Category A: A ≥ 75% degradation) | ≤ 100 | B (Category B: 50% ≤ B < 75% degradation)

More lines, main results first:

MLLT1% Degradation @ 0.01 μM [1] | MLLT1% Degradation @ 0.1 μM [1] | IC50 [2] [nM] | SMILES | MLLT1% Degradation @ 1 μM [1]
A (Category A: A ≥ 75% degradation) | A (Category A: A ≥ 75% degradation) | ≤ 100 | CN1CCC[C@@H]1c1cc2cnc(NC(=O)c3ccc(N4CCC(c5ccc(-c6cccc7c6CN(C6CCC(=O)NC6=O)C7=O)cc5)CC4)nc3)cc2[nH]1 (stereo partly drawn) [Example 67, 6-(4-(4-(2-(2,6-dioxopiperidin-3-yl)-1-oxoisoindolin-4-yl)phenyl)piperidin-1-yl)-N-(2-((R)-1-methylpyrrolidin-2-yl)-1H-pyrrolo[3,2-c]pyridin-6-yl)nicotinamide] | A (Category A: A ≥ 75% degradation)
A (Category A: A ≥ 75% degradation) | A (Category A: A ≥ 75% degradation) | ≤ 100 | CN1CCC[C@@H]1c1cc2cnc(NC(=O)c3ccc(N4CCC(C5CCN(c6cccc7c6CN(C6CCC(=O)NC6=O)C7=O)CC5)CC4)nc3)cc2[nH]1 (stereo partly drawn) [Example 75, 6-(1′-(2-(2,6-dioxopiperidin-3-yl)-1-oxoisoindolin-4-yl)-[4,4′-bipiperidin]-1-yl)-N-(2-((R)-1-methylpyrrolidin-2-yl)-1H-pyrrolo[3,2-c]pyridin-6-yl)nicotinamide] | A (Category A: A ≥ 75% degradation)
